≈ marks a conversion by molar mass, not a printed value. Structures can show the parent of a compound that is named as a salt. Where two headings read alike, the source gives them in different places. Peptide text beside a SMILES is read from it. * marks the point of attachment. For = O=C*

The nature of series [1]: Stability study at 40° C. for two and four weeks (HPLC purity, appearance). In kind it is physicochemical. The conditions noted are these: closed containers. How it is done:
A stability study of the compositions according to the first aspect (and the previously prepared trisodium salt) at 40° C. for two and four weeks was performed. Some general trends were found. […] The purity of the tri-salts varied more than the purity of the di-salts (HPLC purity 78-95% at 4 weeks for the tri-salts vs. 87-96% at 4 weeks for the di-salts). Furthermore, as appears from FIG. 6, the absolute purity of the compositions comprising amino acids was generally higher after 4 weeks at 40° C. when compared with compositions comprising other salt formers (value at 4 weeks: ˜90% vs. ˜85% for tri-salts and ˜95% vs. ˜90% for di-salts).
The stability test data for all formed compositions and the starting material itself (Foxy-5 free acid) were measured at 0, 2 and 4 weeks storage @40° C. and included in FIG. 10.
The following parameters for the substance-specific UPLC method were employed for the purity measurements of the stability samples: […]

The nature of series [2]: pKa by potentiometric titration (Sirius T3). In kind it is physicochemical. The note with it: ISA water, 25° C., read-out: pKa [measured]. As to the method:
2.0.0.0 software. An automated aqueous titration method was used with initial values of 1.0 mg of solid API dissolved in 1.5 mL of ISA water and three sequential titrations on the same sample. In all three titrations, the sample solution was adjusted with 0.5 M KOH to a starting pH of 12 and slowly titrated with 0.5 M HCl to a final pH of 2.
Each titration curve was fit using the SiriusT3Refine Vers. 2.0.0.0 software, and the corresponding pKa values were calculated. […]

Series [3] in a line: Solubility / lyophilization concentration of Foxy-5 drug substance (background statements). The conditions noted are these: for solubility: water. In kind it is physicochemical. The source says:
The current manufacturing process of Foxy-5 applies a product concentration for the final lyophilization of only 3 g/L due to the limited solubility of the salt free drug substance (DS) in water. This presents a bottleneck which severely limits the production throughput for the commercial manufacture of Foxy-5.
While this achievement is impressive, it nonetheless remains problematic to produce Foxy-5 on commercial scale when the final step requires such a high dilution.
Consequently, an increase of batch size by other solubilizing techniques than solvent polarity adjustments was proposed.

Series [4] can be described thus: High pH treatment of aqueous Foxy-5 solution tracked by HPLC. In kind it is physicochemical. The conditions noted are these: after 2 hours at pH=9. How it is done:
After stirring of the Foxy-5 solution for 2 hours at pH 9 (see FIG. 4), the aspartimide peak in the HPLC chromatogram completely disappeared (<LOD). It is known that ring opening of aspartimides occurs at high pH, leading to the formation of either the parent compound and the […] and the D-Asp derivatives. However, significant dimer formation was observed (2.5% after 2 hours at pH=9). The identification of the dimer in the chromatogram was confirmed by co-elution with separately synthesized reference material.

A short description of series [5]: Conversion of Foxy-5 to mono-, di- and tri-sodium salts. It counts as physicochemical. As to the method:
As Foxy-5 contains three carboxylic groups (Asp^2, Glu^5, and the C-terminal carboxylic acids), the mono, di, and tri-sodium salts were generated by treating aqueous slurries of Foxy-5 (25 g/L) with 1 eq., 2 eq. and 3 eq. of sodium hydroxide. As starting material, a batch of Foxy-5 free acid containing very low amounts of two known impurities, the aspartimide (<0.1%) and the dimer, (<0.1%) was used (structures, see FIG. 2).
The di-sodium salt could be completely dissolved within 10 minutes after addition of NaOH (2 eq., pH=4.57). […] After lyophilization, 0.07% dimer and 0.79% aspartimide were detected.
The tri-sodium salt dissolved within 5 minutes after addition of NaOH (3 eq., pH=6.76) with minimal increase of the aspartimide impurity, but increased formation of the dimer was observed. After lyophilization, 0.41% dimer and 0.17% of the aspartimide were detected.

For series [6] the following is noted: cited from earlier work.

For the compound `CSCC[C@H](NC=O)C(=O)N[C@@H](CC(=O)O)C(=O)NCC(=O)N[C@@H](CS)C(=O)N[C@@H](CCC(=O)O)C(=O)N[C@@H](CC(C)C)C(=O)O` [DEA-P1] (For-MDGCEL-OH), the appearance after storage result in series [1] (2 and 4 weeks at 40° C.) was “glassy appearance”.
What is called pKa is the negative logarithm of the acid dissociation constant. In general, aqueous solubility refers to the concentration that dissolves in the medium under given conditions. High values mean a readily soluble substance, low ones a poorly soluble substance. With `CSCC[C@H](NC=O)C(=O)N[C@@H](CC(=O)O)C(=O)NCC(=O)N[C@@H](CS)C(=O)N[C@@H](CCC(=O)O)C(=O)N[C@@H](CC(C)C)C(=O)O` [Foxy-5, For-Met-Asp-Gly-Cys-Glu-Leu-OH] (For-MDGCEL-OH), the pKa in series [2] (ASP carboxylic (acidic)) was 3.98; in series [2] (CYS thiol (acidic)), 9.01; in series [2] (GLU carboxylic (acidic)), 4.79; in series [2] (terminal carboxylic (acidic)), 3.39. Further, the “DS concentration applicable in alternative lyophilization process” value in series [3] (aqueous 30% acetonitrile solution as solvent) is given as “up to 7 g/L”. The compound also came in with an aqueous solubility in series [3] (free Foxy-5 hexapeptide, for comparison, listed as free Foxy-5 peptide) of 3000 µg/mL (≈ 4.32 mM). The solubility in series [3] (free Foxy-5 hexapeptide, for comparison, read-out: aqueous solubility) was around 3000 µg/mL (≈ 4.32 mM); in series [3] (read-out: product concentration for the final lyophilization, limited by solubility of salt free drug substance in water), 3000 µg/mL. Also, in series [4], the dimer formation was found to be 2.5%.
On to `CSCC[C@H](NC=O)C(=O)N[C@@H](CC(=O)O)C(=O)NCC(=O)N[C@@H](CS)C(=O)N[C@@H](CCC(=O)O)C(=O)N[C@@H](CC(C)C)C(=O)O` [NMG-P6] (For-MDGCEL-OH), for which the appearance after storage result in series [1] (2 weeks at 40° C.) was “sticky, glassy appearance”.
For `CSCC[C@H](NC=O)C(=O)N[C@@H](CC(=O)O)C(=O)NCC(=O)N[C@@H](CS)C(=O)N[C@@H](CCC(=O)O)C(=O)N[C@@H](CC(C)C)C(=O)O` [di-sodium salt] (For-MDGCEL-OH), the “time to complete dissolution after addition of NaOH” value in series [5] (aqueous slurry of Foxy-5 25 g/L) was at most 10 min. Moreover, the “aspartimide detected after lyophilization” value in series [5] (starting material aspartimide <0.1%, HPLC) was 0.79%. For the same compound, the “dimer detected after lyophilization” value in series [5] (starting material dimer <0.1%, HPLC) is on record as 0.07%.
Consider `CSCC[C@H](NC=O)C(=O)N[C@@H](CC(=O)O)C(=O)NCC(=O)N[C@@H](CS)C(=O)N[C@@H](CCC(=O)O)C(=O)N[C@@H](CC(C)C)C(=O)O` [mono-sodium salt] (For-MDGCEL-OH), for which, in series [5] (aqueous slurry of Foxy-5 25 g/L, 1 eq. NaOH, pH=3.84), the “dissolution after NaOH addition” value was “could not be completely dissolved”.
Take `NC(CO)(CO)CO` [tromethamine]: the “pKa of the salt-forming base” value in series [6] is listed as 8.0.

Values taken from patent US20250325485A1, “STABLE COMPOSITIONS OF FOXY-5 HEXAPEPTIDE WITH HIGH SOLUBILITY” (WNTRESEARCH AB, priority 2021, published 2025).
